What was measured:
[1] = system: CNV and vascular leakage; experiment: Vascular leakage and CNV area after laser rupture of Bruch's membrane; format: in vivo, C57BL/6 mice; conditions: 5 μg intraocular
Procedure: C57BL/6 mice (n=10) underwent laser rupture of Bruch's membrane in 3 locations in each eye and were given an intraocular injection of 5 μg of sonepcizumab in one eye and vehicle in the contralateral eye. At one week after laser rupture, the mice were given an intraperitoneal injection of 12 μl/g body weight of 1% fluorescein sodium and were euthanized 5 minutes later. The eyes were removed and fixed in PBS-buffered formalin at room temperature for 5 hours. Then the retinas were dissected, washed, and incubated with primary anti-PECAM-1. The retinas were then washed, incubated with secondary antibody (goat anti-rat IgG conjugated with rhodamine), and then flat mounted.
Quantification of CNV lesion area is measured by PECAM-1 staining. Quantification of vascular leakage is measured by fluorescein sodium staining. The total area of leakage from CNV=CNV+leakage (green)−area of CNV (red). Values represent the mean±SEM for n=10 mice/group. […] This is a 50% reduction in neovascularization (p-0.018). […] This is approximately a 38% reduction (p-0.017) in blood vessel leakage.

[2] = system: RPMI 8226 tumor; experiment: RPMI 8226 human myeloma tumor xenograft; format: in vivo, CB17 SCID mice
Procedure: Nude mice (CB17 SCID, aged 4-5 weeks, weight 18-22 gm, female mice obtained from Harlan) were injected sc with RPMI 8226 cells harvested from tissue culture (˜1×10^7 cells/mouse). When tumors grew to approximately 100 mm^3 in size, animals were pair-matched by tumor size into treatment and control groups (10 mice per group). Initial dosing began Day 1 following pair-matching. Animals in all groups were dosed by weight (0.01 ml per gram; 10 ml/kg). […] Bortezomib was administered by intravenous injection via tail vein once every three days for six treatments (Q3D×6).
Individual and group mean tumor volumes±SEM are recorded twice weekly until study completion beginning Day 1. Final mean tumor volume±SEM for each group are reported at study completion; animals experiencing partial or complete tumor regressions or animals experiencing technical or drug-related deaths are censored from these calculations.

[3] = GLP 28-day safety toxicology study of LT1009 in monkeys; format: in vivo
Procedure: In addition, blood was collected from recovery animals 48, 72, 144 and 240 hours following the end of the last dose. Parameters monitored during this study included mortality, clinical signs, body weight, qualitative evaluation of the food consumption, ophthalmology, electrocardiography, and clinical pathology (hematology, clinical chemistry, coagulation and urinalysis). Blood samples were also collected for immunophenotyping assessments, at pre-treatment, on the last day of treatment, and on days 35, 42 and at the end of the recovery period. At termination, a macroscopic examination was performed and selected organs were weighed. Histological evaluation of tissues was conducted on all animals.

[4] = LT1009 formulation stability study (visual inspection, syringeability, SE-HPLC); format: physicochemical; conditions: independent of antibody concentration
Procedure: Preferred formulations should not only stabilize the antibody, but also be tolerated by patients when injected. […] Additionally, three different storage temperatures (5° C., 25° C., and 40° C.) were also examined (representing actual, accelerated, and temperature stress conditions, respectively). Stability was assessed using representative samples taken from the various formulations at five different time points: at study initiation and after two weeks, 1 month, 2 months, and 3 months. At each time point, testing involved visual inspection, syringeability (by pulling through a 30-gauge needle), and size exclusion high performance liquid chromatography (SE-HPLC). Circular dichroism (CD) spectroscopy was also used to assess protein stability since above a certain temperature, proteins undergo denaturation, followed by some degree of aggregate formation. The observed transition is referred to as an apparent denaturation or “melting” temperature (Tm) and indicate the relative stability of a protein. […]
For a given time point, aliquots from each sample were subjected to a series of standard analyses, including visual inspection, syringeability, pH, SDS-PAGE (under both reducing and non-reducing conditions), SE-HPLC, and IEF. Protein concentrations were determined by UV spectroscopy (OD-280). […]

[5] = LT1009 50 mg/kg IP Q3D to end, Bortezomib iv Q3D×6

LT1009: humanized anti-S1P IgG1/kappa mAb with Cys to Ala in HCDR2, light chain with 5 backmutations; SEQ ID NO: 31/32
reduction in blood vessel leakage vs saline [1]: ~38% | reduction in neovascularization vs saline [1]: 50% | area of choroidal neovascularization (PECAM-1) ([1]; one week after laser): approximately 0.015 mm^2 | area of leakage from choroidal neovascularization (fluorescein) ([1]; one week after laser): approximately 0.125 mm^2 | % Reduction compared to Vehicle-Treated Mice ([2]; LT1009 25 mg/kg IP Q3D to end): 11% | Final Tumor Weights ([2]; LT1009 25 mg/kg IP Q3D to end): 1860 mg | % Reduction compared to Vehicle-Treated Mice [2, 5]: 5% | Final Tumor Weights [2, 5]: 1978 mg | absolute number of T cells on Day 28 ([3]; 100 mg/kg): statistically significant decrease | mean lymphocyte counts (+/-SD) after treatment ([3]; 100 mg/kg, males and females combined): 3.18+/−1.25 10^9 cells/L | tolerability ([3]; 3, 10, 30 and 100 mg/kg every third day over 28 days): well tolerated | No Observed Toxic Effect Level (NOTEL) ([3]; 30-minute i.v. infusion every third day for 28 days): 100 mg/kg | conditions of greatest stability (SE-HPLC) [4]: most stable around pH 6 and 450 mM NaCl

From patent US8026342B2, “Compositions and methods for binding sphingosine-1-phosphate” (Lpath, Inc., priority 2006, dated 2011)
